Reference: ChEMBL document CHEMBL3872236, “Discovery of 2-((2-chloro-6-fluorophenyl)amino)-N-(3-fluoro-5-(trifluoromethyl)phenyl)-1-methyl-7,8-dihydro-1H-[1,4]dioxino[2',3':3,4]benzo[1,2-d]imidazole-5-carboxamide as potent, selective and efficacious microsomal prostaglandin E2 synthase-1 (mPGES-1) inhibitor” (Bioorg Med Chem Lett, 2016)

How the values were obtained:
[1] = in vitro; settings: human, liver microsomes
[2] = in vitro; settings: rat, liver microsomes
[3] = in vitro; settings: guinea pig, liver microsomes

In the case of `O=C(Nc1cc(F)cc(C(F)(F)F)c1)c1cc2nc(Nc3c(F)cccc3Cl)[nH]c2c2c1OCCO2`, the remaining at 1 h, 1 µM [1] is reported as 98.2%, the remaining at 1 h, 1 µM [2] is reported as 93.8% and the remaining at 1 h, 1 µM [3] is reported as 95.8%.
